# Measurements reported in patent publication US7358359B2, “Antibacterial agents” (University of Washington, priority 2003, dated 2008).
# Like-named read-outs stand apart in the source and are kept apart here.
# Experiments:
# P. aeruginosa LpxC = target: T1, P. aeruginosa LpxC (Pseudomonas aeruginosa, UniProt P47205); assay: P. aeruginosa LpxC Inhibition Assay; type: biochemical
# T1 sequence (P47205 1-303): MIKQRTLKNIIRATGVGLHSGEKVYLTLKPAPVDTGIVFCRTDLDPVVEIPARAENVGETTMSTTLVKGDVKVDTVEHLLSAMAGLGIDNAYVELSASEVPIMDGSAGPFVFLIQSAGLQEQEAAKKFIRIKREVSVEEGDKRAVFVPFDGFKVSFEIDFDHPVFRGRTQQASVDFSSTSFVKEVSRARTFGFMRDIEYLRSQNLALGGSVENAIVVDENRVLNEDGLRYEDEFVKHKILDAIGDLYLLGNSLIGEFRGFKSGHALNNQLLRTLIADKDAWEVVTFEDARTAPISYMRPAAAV
# Procedure: The assay followed the general method of Hyland et al (Journal of Bacteriology 1997 179, 2029-2037: Cloning, expression and purification of UDP-3-O-acyl-GlcNAc deacetylase from Pseudomonas aeruginosa: a metalloamidase of the lipid A biosynthesis pathway) and the radiolabeling procedure is according to Kline et al. supra. Briefly, samples were incubated with 2 nM P. aeruginosa LpxC and 150 nM [3H-Ac]-UDP-3-OR-3-hydroxydecanoyl)-GlcNAc in a total volume of 50 uL for 90 min at room temperature. Reactions were carried out in 96-well polypropylene plates in 50 mM sodium phosphate buffer, pH 7.5, containing 1 mg/mL BSA. Reactions were stopped by the addition of 180 uL of a 3% suspension of activated charcoal powder in 100 mM sodium acetate, pH 7.5. Supernatants were clarified by centrifugation. A portion of the clarified supernatant, containing the enzymatically released [3H]-acetate, was transferred to opaque white 96-well plates containing scintillation fluid. The radioactivity was measured in a Perkin-Elmer/Wallac Trilux Microbeta counter.
# Burkholderia cepacia = assay: MIC vs non-fermenting organisms: Burkholderia cepacia; type: cell-based; settings: Burkholderia cepacia, B. cepacia; MIC key class; read-out: MIC
# Procedure: (§1) Bacterial isolates were cultivated from −70° C. frozen stocks by two consecutive overnight passages at 35° C. in ambient air on 5% blood agar (Remel, Lenexa, Kans.). Clinical isolates tested were from a collection composed of isolates collected during clinical trials and recent clinical isolates obtained from various geographically diverse hospitals in the US. Quality control and primary panel strains were from the American Type Culture Collection (ATCC; Rockville, Md.), with the exception of P. aeruginosa PAO200, a strain with a deletion of the mexABoprM genes that was received from Dr. H. Schweizer.
# (§2) Minimum Inhibitory Concentrations (MICs) were determined by the broth microdilution method in accordance with the National Committee for Clinical Laboratory Standards (NCCLS) guidelines. In brief, organism suspensions were are adjusted to a 0.5 McFarland standard to yield a final inoculum between 3×10^5 and 7×10^5 colony-forming units (CFU)/mL. Drug dilutions and inocula were made in sterile, cation adjusted Mueller-Hinton Broth (Remel). An inoculum volume of 100 μl was added to wells containing 100 μl of broth with 2-fold serial dilutions of drug. All inoculated microdilution trays were incubated in ambient air at 35° C. for 18-24 hours. Following incubation, the lowest concentration of the drug that prevented visible growth was recorded as the MIC.
# [1] = tested on: Pseudomonas aeruginosa cystic fibrosis isolate 2196; assay: MIC vs cystic fibrosis isolate of P. aeruginosa 2196 (resistant to ciprofloxacin); type: cell-based; settings: strain 2196, Cipro R, LpxC inhibitors, MIC key class
# Procedure: as §1, §2
# [2] = tested on: Pseudomonas aeruginosa cystic fibrosis isolate 3198; assay: MIC vs cystic fibrosis isolate of P. aeruginosa 3198 (sensitive to most antibacterials); type: cell-based; settings: strain 3198, Sensitive, LpxC inhibitors, MIC key class
# Procedure: as §1, §2
# [3] = tested on: Stenotrophomonas maltophilia; assay: MIC vs non-fermenting organisms: Stenotrophomonas maltophilia; type: cell-based; settings: Stenotrophomonas maltophilia, S. malt.; MIC key class; read-out: MIC
# Procedure: as §1, §2
# E. coli 25922 = assay: MIC broth microdilution, standard panel: E. coli 25922; type: cell-based; settings: Escherichia coli, standard panel of organisms
# Procedure: as §1, with “Schweizer. […] Strain Z61 (ATCC 35151) is also hypersusceptible to antibacterials. It is thought that the hypersusceptibility of this strain is the result of increased permeability of its outer membrane (Angus B L et al, Antimicrobial Agents and Chemotherapy 1982 21,299-309: Outer membrane permeability in Pseudomonas aeruginosa: Comparison of a wild-type with an antibacterial-supersusceptible mutant).” for “Schweizer.”
# as §2, with “MIC. Performance of the assay was monitored by the use of laboratory quality-control strains against tobramycin, that has a defined MIC spectrum, in accordance with NCCLS guidelines.” for “MIC.”
# [4] = tested on: non-CF clinical isolates of P. aeruginosa; assay: MIC vs non-CF clinical isolates of P. aeruginosa; type: cell-based; settings: Pseudomonas aeruginosa, MIC key class
# Procedure: as §1, with “Schweizer. […] Strain Z61 (ATCC 35151) is also hypersusceptible to antibacterials. It is thought that the hypersusceptibility of this strain is the result of increased permeability of its outer membrane (Angus B L et al, Antimicrobial Agents and Chemotherapy 1982 21,299-309: Outer membrane permeability in Pseudomonas aeruginosa: Comparison of a wild-type with an antibacterial-supersusceptible mutant).” for “Schweizer.”
# as §2, with “MIC. Performance of the assay was monitored by the use of laboratory quality-control strains against tobramycin, that has a defined MIC spectrum, in accordance with NCCLS guidelines.” for “MIC.”
# [5] = tested on: Pseudomonas aeruginosa cystic fibrosis isolate 3317; assay: MIC vs cystic fibrosis isolate of P. aeruginosa 3317 (resistant to aztreonam); type: cell-based; settings: strain 3317, Aztr. R, LpxC inhibitors, MIC key class
# Procedure: as §1, §2
# [6] = tested on: Pseudomonas aeruginosa cystic fibrosis isolate 1145; assay: microbe, parasite or virus in culture; type: cell-based
# Procedure: as §1, §2
# [7] = tested on: Pseudomonas aeruginosa cystic fibrosis isolate 3206; assay: microbe, parasite or virus in culture; type: cell-based
# Procedure: as §1, §2
# Klebsiella pneumoniae = assay: MIC vs enteric organisms: Klebsiella pneumoniae; type: cell-based; settings: K. pneu., MIC key class
# Procedure: as §1, §2
# Serratia marcescens = assay: MIC vs enteric organisms: Serratia marcescens; type: cell-based; settings: S. marc., MIC key class
# Procedure: as §1, §2
# [8] = tested on: Pseudomonas aeruginosa cystic fibrosis isolate 3224; assay: MIC vs cystic fibrosis isolate of P. aeruginosa 3224; type: cell-based; settings: strain 3224, Tobra R, LpxC inhibitors, MIC key class
# Procedure: as §1, §2
# S. aureus 29213 = assay: MIC broth microdilution, standard panel: S. aureus 29213; type: cell-based; settings: Staphylococcus aureus, standard panel of organisms
# Procedure: as §1, with “Schweizer. […] Strain Z61 (ATCC 35151) is also hypersusceptible to antibacterials. It is thought that the hypersusceptibility of this strain is the result of increased permeability of its outer membrane (Angus B L et al, Antimicrobial Agents and Chemotherapy 1982 21,299-309: Outer membrane permeability in Pseudomonas aeruginosa: Comparison of a wild-type with an antibacterial-supersusceptible mutant).” for “Schweizer.”
# as §2, with “MIC. Performance of the assay was monitored by the use of laboratory quality-control strains against tobramycin, that has a defined MIC spectrum, in accordance with NCCLS guidelines.” for “MIC.”
# [9] = 2 nM P. aeruginosa LpxC, 90 min, room temperature, read-out: IC50 (nM), Enzyme inhibitory activity
# [10] = strain 1145, MDR, LpxC inhibitors, MIC key class, read-out: MIC
# [11] = strain 3206, MDR, LpxC inhibitors, MIC key class, read-out: MIC
SMILES,IC50 (P. aeruginosa LpxC) [nM],MIC (Burkholderia cepacia) [µg/mL],MIC [1] [µg/mL],MIC [2] [µg/mL],MIC [3] [µg/mL],MIC (E. coli 25922) [µg/mL],MIC ([4]; P. aer 12307) [µg/mL],MIC ([4]; P. aer 27853) [µg/mL],MIC ([4]; P. aer psa-6b) [µg/mL],"MIC ([4]; PAO1, P. aer. PAO1) [µg/mL]",MIC [5] [µg/mL],MIC [6] [µg/mL],MIC [7] [µg/mL],MIC (Klebsiella pneumoniae) [µg/mL],MIC (Serratia marcescens) [µg/mL],MIC [8] [µg/mL],MIC (S. aureus 29213) [µg/mL],IC50 (P. aeruginosa LpxC; [9]) [nM],"MIC [6, 10] [µg/mL]","MIC [7, 11] [µg/mL]"
"C[C@@H](O)[C@H](NC(=O)c1ccc(C#Cc2ccccc2)cc1)C(=O)NO [Example 12, N-(1-(N-hydroxycarbamoyl)(1S,2R)-2-hydroxypropyl)[4-(2-phenylethynyl)phenyl]carboxamide]",< 100,6.25 to 50,6.25 to 50,< 6.25,< 6.25,< 6.25,< 6.25,< 6.25,< 6.25,< 6.25,< 6.25,< 6.25,< 6.25,< 6.25,< 6.25,< 6.25,> 50,–,–,–
"C[C@@H](O)[C@H](NC(=O)c1ccc(C#CC#Cc2ccc(NC(=O)CNc3ccccc3)cc2)cc1)C(=O)NO [Example 777, N-{(1S,2R)-2-hydroxy-1-[(hydroxyamino)carbonyl]propyl}-4-[4-(4-{[(phenylamino)acetyl]amino}phenyl)buta-1,3-diynyl]benzamide]",–,< 6.25,< 6.25,< 6.25,> 50,< 6.25,< 6.25,< 6.25,6.25 to 50,–,< 6.25,–,–,< 6.25,< 6.25,< 6.25,> 50,< 100,< 6.25,< 6.25
"CCc1ccc(-c2ccc(C(=O)N[C@H](C(=O)NO)[C@@H](C)N)cc2)cc1 [Example 779, N-{(1S,2R)-2-amino-1-[(hydroxyamino)carbonyl]propyl)-4′-ethyl-1,1′-biphenyl-4-carboxamide]",< 100,< 6.25,< 6.25,< 6.25,6.25 to 50,< 6.25,–,< 6.25,< 6.25,< 6.25,< 6.25,–,–,6.25 to 50,< 6.25,< 6.25,> 50,–,< 6.25,< 6.25
C[C@@H](N)[C@H](NC(=O)c1ccc(C#Cc2ccccc2)cc1)C(=O)NO [Example 13],< 100,< 6.25,< 6.25,< 6.25,6.25 to 50,< 6.25,–,< 6.25,< 6.25,< 6.25,< 6.25,–,–,< 6.25,< 6.25,< 6.25,> 50,–,< 6.25,< 6.25
"NC[C@H](NC(=O)c1ccc(C#Cc2ccc(NC(=O)CNC3CC3)cc2)cc1)C(=O)NO [Example 516, N-[(1S)-1-(aminomethyl)-2-(hydroxyamino)-2-oxoethyl]-4-[(4-{[(cyclopropylamino)acetyl]amino}phenyl)ethynyl]benzamide]",–,> 50,< 6.25,< 6.25,> 50,< 6.25,< 6.25,< 6.25,< 6.25,–,< 6.25,–,–,> 50,< 6.25,< 6.25,> 50,< 100,< 6.25,< 6.25
"CCc1ccc(-c2ccc(C(=O)N[C@@H](CN)C(=O)NO)cc2)cc1 [Example 280, N-[(1S)-1-(aminomethyl)-2-(hydroxyamino)-2-oxoethyl]-4′-ethyl-1,1-biphenyl-4-carboxamide]",–,6.25 to 50,6.25 to 50,< 6.25,6.25 to 50,< 6.25,< 6.25,< 6.25,< 6.25,< 6.25,< 6.25,–,–,6.25 to 50,6.25 to 50,< 6.25,> 50,< 100,< 6.25,< 6.25
"C[C@@H](O)[C@H](NC(=O)c1ccc(C#CC#Cc2ccccc2)cc1)C(=O)NO [Example 19, N-(1-(N-hydroxycarbamoyl)(1S,2R)-2-hydroxypropyl)[4-(4-phenylbuta-1,3-diynyl)phenyl]carboxamide]",< 100,6.25 to 50,< 6.25,< 6.25,6.25 to 50,< 6.25,< 6.25,< 6.25,< 6.25,< 6.25,< 6.25,–,–,< 6.25,< 6.25,< 6.25,6.25 to 50,–,< 6.25,< 6.25
"C[C@@H](O)[C@H](NC(=O)c1ccc(C#CC#Cc2ccc(NC(=O)CNc3ccccn3)cc2)cc1)C(=O)NO [Example 801, N-{(1S,2R)-2-hydroxy-1-[(hydroxyamino)carbonyl]propyl}-4-[4-(4-{[(pyridin-2-ylamino)acetyl]amino}phenyl)buta-1,3-diynyl]benzamide]",–,6.25 to 50,< 6.25,< 6.25,> 50,< 6.25,–,< 6.25,< 6.25,< 6.25,< 6.25,–,–,< 6.25,< 6.25,< 6.25,> 50,< 100,< 6.25,< 6.25
